Measurements: PubChem BioAssay (NCI)
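Five concentrations, 48 hours, 96-well plates. The concentration for 50% growth inhibition is given as GI50. Definition used: TGI = concentration required for complete inhibition of growth.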

Experiments:
Assay in all cases: DTP human tumour cell line panel, 48 h
786-0 renal = tested on: 786-0 renal
A498 renal = tested on: A498 renal
A549 NSCLC = tested on: A549 NSCLC
ACHN renal = tested on: ACHN renal
BT-549 breast = tested on: BT-549 breast
CAKI-1 renal = tested on: CAKI-1 renal
CCRF-CEM leukemia = tested on: CCRF-CEM leukemia
DU-145 prostate = tested on: DU-145 prostate
EKVX NSCLC = tested on: EKVX NSCLC
HCC-2998 colon = tested on: HCC-2998 colon
HCT-116 colon = tested on: HCT-116 colon
HCT-15 colon = tested on: HCT-15 colon
HL-60(TB) leukemia = tested on: HL-60(TB) leukemia
HOP-62 NSCLC = tested on: HOP-62 NSCLC
HOP-92 NSCLC = tested on: HOP-92 NSCLC
HS 578T breast = tested on: HS 578T breast
HT29 colon = tested on: HT29 colon
IGROV1 ovarian = tested on: IGROV1 ovarian
K-562 leukemia = tested on: K-562 leukemia
KM12 colon = tested on: KM12 colon
LOX IMVI melanoma = tested on: LOX IMVI melanoma
M14 melanoma = tested on: M14 melanoma
MALME-3M melanoma = tested on: MALME-3M melanoma
MCF7 breast = tested on: MCF7 breast
MDA-MB-231 breast = tested on: MDA-MB-231 breast
MDA-MB-435 = tested on: MDA-MB-435
MOLT-4 leukemia = tested on: MOLT-4 leukemia
NCI-H460 lung = tested on: NCI-H460 lung
NCI-H522 lung = tested on: NCI-H522 lung
NCI/ADR-RES ovarian = tested on: NCI/ADR-RES ovarian
OVCAR-3 ovarian = tested on: OVCAR-3 ovarian
OVCAR-4 ovarian = tested on: OVCAR-4 ovarian
OVCAR-5 ovarian = tested on: OVCAR-5 ovarian
OVCAR-8 ovarian = tested on: OVCAR-8 ovarian
PC-3 prostate = tested on: PC-3 prostate
RPMI-8226 leukemia = tested on: RPMI-8226 leukemia
RXF 393 renal = tested on: RXF 393 renal
SF-295 CNS = tested on: SF-295 CNS
SF-539 CNS = tested on: SF-539 CNS
SK-MEL-2 melanoma = tested on: SK-MEL-2 melanoma
SK-MEL-28 melanoma = tested on: SK-MEL-28 melanoma
SK-MEL-5 melanoma = tested on: SK-MEL-5 melanoma
SK-OV-3 ovarian = tested on: SK-OV-3 ovarian
SN12C renal = tested on: SN12C renal
SNB-19 CNS = tested on: SNB-19 CNS
SR leukemia = tested on: SR leukemia
T-47D breast = tested on: T-47D breast
TK-10 renal = tested on: TK-10 renal
U251 CNS = tested on: U251 CNS
UACC-257 melanoma = tested on: UACC-257 melanoma
UACC-62 melanoma = tested on: UACC-62 melanoma
UO-31 renal = tested on: UO-31 renal

COc1ccc(-c2nc3cc(Cl)c(Cl)cc3n2CC(=O)N=Nc2c(O)[nH]c3ccc(Cl)cc23)cc1
GI50 (786-0 renal): 1800 nM
TGI (786-0 renal): 3280 nM
GI50 (A498 renal): 1910 nM
TGI (A498 renal): 3550 nM
GI50 (A549 NSCLC): 1760 nM
TGI (A549 NSCLC): 3530 nM
GI50 (ACHN renal): 1780 nM
TGI (ACHN renal): 3200 nM
GI50 (BT-549 breast): 2510 nM
TGI (BT-549 breast): 6440 nM
GI50 (CAKI-1 renal): 1500 nM
TGI (CAKI-1 renal): 2850 nM
GI50 (CCRF-CEM leukemia): 3930 nM
TGI (CCRF-CEM leukemia): > 100000 nM
GI50 (DU-145 prostate): 1860 nM
TGI (DU-145 prostate): 3500 nM
GI50 (EKVX NSCLC): 2120 nM
TGI (EKVX NSCLC): 4940 nM
GI50 (HCC-2998 colon): 1920 nM
TGI (HCC-2998 colon): 3560 nM
GI50 (HCT-116 colon): 1830 nM
TGI (HCT-116 colon): 3350 nM
GI50 (HCT-15 colon): 1920 nM
TGI (HCT-15 colon): 3880 nM
GI50 (HL-60(TB) leukemia): 4870 nM
TGI (HL-60(TB) leukemia): > 100000 nM
GI50 (HOP-62 NSCLC): 1610 nM
TGI (HOP-62 NSCLC): 3160 nM
GI50 (HOP-92 NSCLC): 1160 nM
TGI (HOP-92 NSCLC): 2770 nM
GI50 (HS 578T breast): 2120 nM
TGI (HS 578T breast): 5530 nM
GI50 (HT29 colon): 1830 nM
TGI (HT29 colon): 3500 nM
GI50 (IGROV1 ovarian): 1740 nM
TGI (IGROV1 ovarian): 3460 nM
GI50 (K-562 leukemia): 2430 nM
TGI (K-562 leukemia): 6220 nM
GI50 (KM12 colon): 2150 nM
TGI (KM12 colon): 5180 nM
GI50 (LOX IMVI melanoma): 1780 nM
TGI (LOX IMVI melanoma): 3330 nM
GI50 (M14 melanoma): 1810 nM
TGI (M14 melanoma): 3500 nM
GI50 (MALME-3M melanoma): 1760 nM
TGI (MALME-3M melanoma): 3370 nM
GI50 (MCF7 breast): 1830 nM
TGI (MCF7 breast): 3620 nM
GI50 (MDA-MB-231 breast): 1850 nM
TGI (MDA-MB-231 breast): 3970 nM
GI50 (MDA-MB-435): 1740 nM
TGI (MDA-MB-435): 3400 nM
GI50 (MOLT-4 leukemia): 4440 nM
TGI (MOLT-4 leukemia): > 100000 nM
GI50 (NCI-H460 lung): 1860 nM
TGI (NCI-H460 lung): 3510 nM
GI50 (NCI-H522 lung): 1730 nM
TGI (NCI-H522 lung): 3720 nM
GI50 (NCI/ADR-RES ovarian): 1840 nM
TGI (NCI/ADR-RES ovarian): 3790 nM
GI50 (OVCAR-3 ovarian): 1730 nM
TGI (OVCAR-3 ovarian): 3200 nM
GI50 (OVCAR-4 ovarian): 1740 nM
TGI (OVCAR-4 ovarian): 3370 nM
GI50 (OVCAR-5 ovarian): 1910 nM
TGI (OVCAR-5 ovarian): 3780 nM
GI50 (OVCAR-8 ovarian): 1760 nM
TGI (OVCAR-8 ovarian): 3290 nM
GI50 (PC-3 prostate): 1680 nM
TGI (PC-3 prostate): 3340 nM
GI50 (RPMI-8226 leukemia): 2310 nM
TGI (RPMI-8226 leukemia): 6540 nM
GI50 (RXF 393 renal): 1720 nM
TGI (RXF 393 renal): 3170 nM
GI50 (SF-295 CNS): 1940 nM
TGI (SF-295 CNS): 3600 nM
GI50 (SF-539 CNS): 1710 nM
TGI (SF-539 CNS): 3180 nM
GI50 (SK-MEL-2 melanoma): 1850 nM
TGI (SK-MEL-2 melanoma): 3620 nM
GI50 (SK-MEL-28 melanoma): 1780 nM
TGI (SK-MEL-28 melanoma): 3250 nM
GI50 (SK-MEL-5 melanoma): 2000 nM
TGI (SK-MEL-5 melanoma): 4040 nM
GI50 (SK-OV-3 ovarian): 1640 nM
TGI (SK-OV-3 ovarian): 3240 nM
GI50 (SN12C renal): 1950 nM
TGI (SN12C renal): 3760 nM
GI50 (SNB-19 CNS): 2000 nM
TGI (SNB-19 CNS): 4210 nM
GI50 (SR leukemia): 3030 nM
TGI (SR leukemia): > 100000 nM
GI50 (T-47D breast): 1710 nM
TGI (T-47D breast): 3560 nM
GI50 (TK-10 renal): 2860 nM
TGI (TK-10 renal): 7070 nM
GI50 (U251 CNS): 1690 nM
TGI (U251 CNS): 3140 nM
GI50 (UACC-257 melanoma): 1640 nM
TGI (UACC-257 melanoma): 3290 nM
GI50 (UACC-62 melanoma): 1700 nM
TGI (UACC-62 melanoma): 3390 nM
GI50 (UO-31 renal): 1260 nM
TGI (UO-31 renal): 2530 nM
